Read-outs that look alike come from different tables or passages of the source.

These results are taken from patent publication US8318223B2, “Method for producing modified milk” (Ajinomoto Co., Inc., priority 2008, dated 2012).

For the experiment, the target named is T1, PG (Chryseobacterium proteolyticum, UniProt Q9AQQ8).
T1 construct: made in house
T1 sequence (Q9AQQ8 136-320): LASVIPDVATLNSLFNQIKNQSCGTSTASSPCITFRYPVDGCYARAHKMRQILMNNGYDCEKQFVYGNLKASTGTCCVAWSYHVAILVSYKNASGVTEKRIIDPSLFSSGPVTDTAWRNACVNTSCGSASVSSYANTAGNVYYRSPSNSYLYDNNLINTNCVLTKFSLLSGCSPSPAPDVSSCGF
Format: biochemical. Here is the method:
Calcium chelating materials were added to LTLT sterilized milk (66° C., 30 minutes: Takanashi low temperature sterilized milk) properly. The reactivity of PG with each milk sample was measured as follows. To each milk sample was added 0.4 U/ml (corresponding to about 12 u per 1 g of milk protein) of PG (a purified product described in Experimental Example 1) and incubated at 50° C. for 60 minutes. The enzyme reaction was ceased by adding 12% TCA the amount of which is the same as the reacting solution and centrifuged (12,000 rpm, 5° C., 5 minutes) to measure the amount of ammonium in the supernatant using an ammonium quantitative measurement kit, F-kit (Roche).
Alkaline materials were added to LTLT sterilized milk (66° C., 30 minutes: Takanashi low temperature sterilized milk) properly so as to adjust the pH 7 to 8.4. The reactivity of PG with each milk sample was measured as in Example 1.
Glutathione or cysteine (Nacalai Tesque, Inc.) as a thiol-type reducing agent was added to LTLT sterilized milk (66° C., 30 minutes: Takanashi low temperature sterilized milk) properly. The reactivity of PG to each milk was measured as in Example 1. […] By the same manner, the reactivity of PG to milk was measured by adding glutathione yeast extract (AROMILD UG8, Kohjin Co., Ltd.) to milk at different concentrations.

The mark [1] stands for this setting: alkaline additive 0.20% in LTLT milk, control (pH 6.67) 13.6.
[2] abbreviates: alkaline additive 0.25% in LTLT milk, control (pH 6.67) 13.6.
[3] abbreviates: alkaline additive 0.30% in LTLT milk, control (pH 6.67) 13.6.
Where [4] appears, read: alkaline additive […] in LTLT milk, control (pH 6.67) 13.6.
The mark [5] stands for this setting: additive 0.4% in LTLT milk, PG 0.4 U/ml, 50° C., 60 minutes, control 22.1.
[6] abbreviates: additive 0.5% in LTLT milk, PG 0.4 U/ml, 50° C., 60 minutes, control 22.1.

On to `N=C(N)NCCC[C@H](N)C(=O)O` [Arg (amino acid), arginine], for which the “PG reactivity (%)” value under setting [1] was determined as 54.1%; the “PG reactivity (%)” value under setting [2] is given as 67%; the “PG reactivity (%)” value under setting [3] was found to be 76.2%; the “PG reactivity (%)” value (alkaline additive 0.40% in LTLT milk, control (pH 6.67) 13.6) turned out to be 75%.
Take `O=C([O-])CN(CCN(CC(=O)[O-])CC(=O)[O-])CC(=O)[O-].[Na+].[Na+].[Na+].[Na+]` [EDTA, tetrasodium ethylenediaminetetraacetate]: the “PG reactivity (%)” value (additive 20 mM in LTLT milk, PG 0.4 U/ml, 50° C., 60 minutes, control 22.1) came out at 55.9%.
As to `O=C([O-])[O-].[K+].[K+]` [Potassium carbonate], the “PG reactivity (%)” value (alkaline additive 0.13% in LTLT milk, control (pH 6.67) 13.6) is listed as 62.5%.
On to `O=C([O-])[O-].[Na+].[Na+]` [Sodium carbonate], for which the “PG reactivity (%)” value turned out to be 61.7% (alkaline additive 0.10% in LTLT milk, control (pH 6.67) 13.6); 65% under setting [1]; 72.7% under setting [4].
With `O=C([O-])O.[Na+]` [Sodium hydrogen carbonate], the “PG reactivity (%)” value is, setting by setting: under setting [3], 58.1%; (alkaline additive 1.00% in LTLT milk, control (pH 6.67) 13.6) 57.8%.
As to `O=C([O-])CC(O)(CC(=O)[O-])C(=O)[O-].[Na+].[Na+].[Na+]` [Trisodium citrate], the “PG reactivity (%)” value reads like this: (additive 0.2% in LTLT milk, PG 0.4 U/ml, 50° C., 60 minutes, control 22.1) 40.5%; under setting [5], 47.3%; under setting [6], 42.8%.
In the case of `O=P([O-])([O-])[O-].[Na+].[Na+].[Na+]` [Trisodium phosphate], the “PG reactivity (%)” value under setting [1] worked out at 65.8%, the “PG reactivity (%)” value under setting [2] is recorded as 72% and the “PG reactivity (%)” value under setting [4] is on record as 54.9%.
Take sodium γ-polyglutamate [γ-PGA]: the “PG reactivity (%)” value amounted to 49.8% under setting [5]; 58.1% under setting [6]; 79.2% (additive 0.75% in LTLT milk, PG 0.4 U/ml, 50° C., 60 minutes, control 22.1); 96.1% (additive 1% in LTLT milk, PG 0.4 U/ml, 50° C., 60 minutes, control 22.1).
